The values that follow come from patent US20230075368A1, “IDENTIFICATION OF AN EGFR-BIN3 PATHWAY THAT ACTIVELY SUPPRESSES INVASION AND REDUCES TUMOR SIZE IN GLIOBLASTOMA” (The United States Govemment as represented by the …, priority 2020, published 2023).

In the assay the test system is Mayo PDX cells. The assay can be described thus: Matrigel invasion assay. It counts as cell-based, human. How it is done:
Invasion status of cells was tested with Matrigel Boyden chamber assays (Fisher). 1×10^5 cells were plated on BD BioCoat Matrigel invasion chambers. 24 hours after treatment with drugs, invaded cells were stained with the HEMA-3 kit (Fisher). Invaded cells were counted in 4-5 random fields.
An equal number of cells (5×10^4) were seeded on Matrigel coated inserts, and were untreated (control vehicle) or stimulated with 50 ng/ml EGF for 24 hours, cells invading to the other side of the membrane were counted and presented as percentage cell invasion. […] A similar invasion assay was conducted on GBM26 cells (FIG. 2D). […] Cells were transfected with EGFR or scrambled siRNA for 48 hours before the invasion assay. A similar invasion assay was performed on GBM6 (FIG. 2G). […] Cells were transiently transfected with empty or EGFR wildtype (EGFRwt) overexpressing vector, and invasion assay was performed after 48 hours after transfection. […] Cells were treated with or without 50 ng/ml EGF for 48 hours before the assay. The Western blot images are representative of three independent biological replicates. Actin served as loading control. Data are represented as mean±SEM from three independent experiments. *P<0.05, **P<0.01, n.s. not significant, unpaired two-tailed Student's t-test.
FIG. 3C and FIG. 3D show the results of a Matrigel invasion assay of EGFR siRNA knockdown in GBM12 and GBM6 in response to EGF. Cells were treated with EGFR or scrambled siRNA for 48 hours, transfected cells were seeded on Matrigel coated inserts and were treated with or without 50 ng/ml EGF for 24 hours. […] Cells were transiently transfected with EGFRvIII expression or empty vector, invasion assay was performed 48 hours after transfection. […] Western blot images are representative of three independent biological replicates. Actin served as a loading control. Data are represented as mean±SEM from three independent experiments. […], **P<0.01, ***P<0.001, n.s. not significant, unpaired two-tailed t-test.

With `C#Cc1cccc(Nc2ncnc3cc(OCCOC)c(OCCOC)cc23)c1` [erlotinib, Erlotinib], the cell invasion entry by setting is: (erlotinib 1 μM, 24 hours, GBM12, GBM26) “suppressed the invasiveness”; (erlotinib, 48 h) “returns to baseline”.
